Laboratory results published in ChEMBL document CHEMBL3507680, “University of Dundee, Gates Library screen for HepG2 cell viability”.

Test: Human HepG2 cell viability assay in 384 well format
Assay type: toxicity, cell-based
Parameters: dose 125 nL, time 70.5 hour; cytotoxicity at 70.5 h: concentration not given beside the values
Conditions: HepG2 cells, read-out: Inhibition

SMILES | cytotoxicity at 70.5 h [%]
c1cncc(COCC2CN(Cc3ccco3)Cc3ccnn3C2)c1 (centres undefined) | 0.213
Cn1c2ncccc2c(=O)n1CC(=O)NCCc1c(F)cccc1F | -7.19
COCCn1ccc2ccc(NC(=O)NCc3noc(C)n3)cc21 | 2.1
CC(=O)N1CCC(n2ccc(-c3cnc(N4CCOCC4)nc3)n2)CC1 | -5.97
CCCC(=O)N1CCC2(CC1)OCCO2 | -2.35
CCc1nnsc1C(=O)NC1CCN(c2ccccn2)CC1 | 11.2
Cc1cccc(CNC2CCCc3c2cnn3Cc2ccccc2)c1 (centres undefined) | -7.85
Cc1cn2nc(N3CCCC3Cn3nc(C)cc3C)sc2n1 (centres undefined) | -7.66
Cc1ccc(S(=O)(=O)NCC(C)C#N)cc1Br (centres undefined) | -4.59
Cc1ccc(C)c2c(O)cc(CNCCNC(=O)C(C)C)nc12 | -6.05
O=C(COCC1CC1)N1CCSCC1 | 2.26
Fc1cccc(CN2CCC(c3noc(-c4cnccn4)n3)CC2)c1F | -0.815
O=C(C(CNCc1ccncc1)c1ccccc1)N1CCOCC1 (centres undefined) | -5.58
CSCCC(NC(=O)c1ccc2ccccc2n1)C(=O)O (centres undefined) | 4.89
CC(C)NC(=O)c1ccc(NC(=O)NC(C)c2ccccn2)cc1 (centres undefined) | 19.1
Cc1ccc(-c2cc(CN3CCCC(Cn4cncn4)C3)on2)cc1 (centres undefined) | 27.6
CC(C)C1Nc2ccccc2C(=O)N1CC(=O)Nc1nc2c(s1)CCC2 (centres undefined) | -15.3
CC1c2ncc(Cn3cncn3)n2CCN1C(=O)c1ccsc1 (centres undefined) | -4.72
O=C(Cc1csc(-c2ccco2)n1)N1CCN(c2ccccc2O)CC1 | -4.66
Cc1noc(C(C)C)c1C(=O)NCCN1CCCCCC1=O | -19
CC(=O)N1CCC(C(=O)N2CCC(=Cc3cccc(F)c3)CC2)CC1 | -11.3
Cc1c[nH]c(C2CN(Cc3ccccc3C(=O)O)CCO2)n1 (centres undefined) | -1.83
CCn1ncnc1C(C)NC(=O)C1CCN(C(=O)COC)CC1 (centres undefined) | -8.09

SMILES | cytotoxicity at 70.5 h [%]
Cn1ccc(C(=O)N2CCCC(Cc3cnc4ccccc4c3)C2)n1 (centres undefined) | -1.48
COc1ccc(Br)cc1CCC(=O)N1CCCC1 | -0.161
CSc1ccc(-c2cc(CN)nc3ccnn23)cc1 | -12.2
CN1CCC(c2cccc(CCC(=O)NCC(N)=O)n2)CC1 | -5.22
CS(=O)(=O)NCCCN1CCCC1c1cccc(Br)c1 (centres undefined) | -9.99
O=C(CN1CCN(c2ccnc3c(F)ccc(F)c23)CC1)N1CCCC1 | 8.2
Cc1ccc2nnc(C(=O)NCCCn3cccn3)nc2c1 | 6.08
CN(CCc1ccccc1)C1CCCN(Cc2nccn2C)C1 (centres undefined) | -4.92
CC(C)(C)C(Cn1ccnc1)NC(=O)NCc1ccco1 (centres undefined) | -7.73
Cc1cnn(C2CN(Cc3ccc4c(c3)OCCO4)C2)c1 | -10.6
CN1CCN(C)C(c2nnc3ccc(C(=O)N4CCOCC4)cn23)C1 (centres undefined) | -21.5
Cc1ccc2oc(C(=O)N3CCc4nnc(N(C)C)cc4C3)cc2n1 | -3.29
Cc1ccc(-c2noc([C@@H]3C[C@H](NC(=O)NC(C)C)CN3C)n2)cc1 | -7.56
CC(NC(=O)NC1CCN(Cc2ccccn2)CC1)c1nncn1C (centres undefined) | -2
O=C(C1CCC1)N1CCN(Cc2ccc(F)cc2)[C@H]2CS(=O)(=O)C[C@H]21 | -3.17
Cc1cc(CNc2cc(Cl)ccc2OCCS(C)(=O)=O)no1 | 13.3
CN1CCC(N(Cc2ccncc2)C(=O)COCC2CCCCO2)CC1 (centres undefined) | -1.65
O=C(c1cccs1)N1CC[C@H]2C[C@@H](c3nnc(C4CC4)o3)O[C@@H]2C1 | -7
O=C(C1CC1)N1CCCC1c1nnc2n1CCCCC2 (centres undefined) | 0.772
O=C(c1cnccn1)N1C[C@@H]2CN(Cc3cccnc3)CCO[C@@H]2C1 | 18.1
CC(C)c1cc(C(=O)N2CCN(CC3CC3)[C@@H]3CS(=O)(=O)C[C@@H]32)on1 | -0.581
Cc1nsc(N2CCCN(C(=O)c3ccc4[nH]ccc4c3)CC2)n1 | -3.86
CC(NC(=O)CCCOc1ccccc1)c1nnc2n1CCCCC2 (centres undefined) | -20.9

SMILES | cytotoxicity at 70.5 h [%]
O=C(NCc1cccs1)c1[nH]nc2c1CS(=O)(=O)CC2 | -0.606
CCCc1noc(CCC(=O)N2CCCC(n3ccnc3C)C2)n1 (centres undefined) | -9.38
Fc1cccnc1O[C@@H]1CC[C@H]2[C@H]1OCCN2Cc1nccs1 | -2.76
CN(C)c1ccccc1C(=O)N1C[C@@H](CN2CCCCC2)[C@@H](CO)C1 | -3.58
Cc1ncc(CNC(=O)CCc2ccccc2F)c(C2CCCN2C)n1 (centres undefined) | -0.236
CN(C)C(=O)c1cnc2n1CCN(Cc1cccc(C#N)c1)C2 | -7.44
Cc1cc(CN(C)C(=O)c2cccc(N3CCCS3(=O)=O)c2)no1 | -12.6
CO[C@@]1(C)C[C@@H](O)C12CCN(C(=O)c1ccccc1C(C)=O)CC2 | -7.26
Cc1ccc(C(=O)N2CCOCC3(CCN(C4CCOCC4)C3)C2)o1 (centres undefined) | -13.2
CSC(CNS(C)(=O)=O)c1cccc(Cl)c1 (centres undefined) | 24
OCCC[C@@H]1CN(c2ncc(Cl)cc2Cl)CC[C@@H]1N1CCOCC1 | 3.21
CCS(=O)(=O)N1CCc2c(COCc3ccncc3)cncc2C1 | 18.9
O=C1CCCN1Cc1ncn2c1CN(C(=O)Cc1cccs1)CCC2 | -1.17
CC(C)(C)c1nnc(CNc2c(F)cccc2-n2cccn2)o1 | -8.76
CN(Cc1ccc2nonc2c1)C(=O)CCc1cc2n(n1)CCCNC2 | -6.8
CC(=O)NC1CCCN(C(=O)NCc2cccnc2-n2cccn2)C1 (centres undefined) | 3.84
CC(=O)NC(Cc1c[nH]c2cc(F)ccc12)C(=O)Nc1nonc1C (centres undefined) | 22
COc1ccccc1OCCc1nnc(NC(=O)C2CC23CCC3)s1 (centres undefined) | -2.4
CCn1nc(C)c(S(=O)(=O)N(C)c2ccc(Cl)cn2)c1C | 12
O=C(Nc1ccc2c(c1)OCCO2)N1CCCN(Cc2cccs2)CC1 | 0.682
CN(C)c1ccc(CN(CC2CCCO2)C(=O)c2csnn2)cc1 (centres undefined) | -14.8
O=C(c1ncccc1O)N1CCN(Cc2ccco2)C(CCO)C1 (centres undefined) | -11.1
COCC(O)CN(C)C(=O)NC1CCN(Cc2ccccn2)CC1 (centres undefined) | -17.1

SMILES | cytotoxicity at 70.5 h [%]
Cc1cc(N2CCOCC2)nc(N(C)CCO)c1C#N | -5.45
O=S(=O)(c1cccnc1)N1CCN(CCn2ccnc2)CC1 | -0.387
CCn1cc(NC(=O)NCCN2CCc3ccccc3C2)cn1 | 4.14
Cc1nc(C)c(C(=O)N2CCCC2(C)C(=O)NC2CCCC2)s1 (centres undefined) | -3.63
Cc1nc(CN(C)C2CCN(Cc3ccno3)C2)no1 (centres undefined) | 29.4
O=c1nc(SCc2ccncc2)c2c(n1CCO)CCC2 | -0.878
Cc1cc(NC(=O)C(C)C)n(-c2nc(C)c(C)c(=O)[nH]2)n1 | 56.9
CN1C(=O)CCN(C(=O)C2CC=CC2)c2ccccc21 | 1.54
CCOC(=O)c1ccc(S(=O)(=O)NCC(CC)N2CCCC2)cc1 (centres undefined) | -5.87
Cc1ccc(=O)n(CC(=O)N2CCCC(c3nc(C)c(C)s3)C2)n1 (centres undefined) | -5.44
COc1ccc(C#N)cc1CSCCN1CCOCC1 | -9.88
CCc1[nH]c2c(CNc3nccc(N)n3)cc(F)cc2c1C | 16.1
Cc1ccc2nc(CN(C)Cc3[nH]nc4c3CCC4)[nH]c2c1C | 6.49
COc1cc(C(=O)NS(=O)(=O)c2cncc(Br)c2)cc(OC)c1C | -8.02
CC(C)Oc1ccccc1OCCN1C(=O)CCNC1=O | 22.4
COc1ccc(C2CCCN2C(=O)Nc2ccc(OC)nc2)cc1 (centres undefined) | -7.84
CCc1ccc(OCCn2cccn2)cc1 | 23.9
Cc1cc2ncn(C[C@]3(O)CCCN4CCCC[C@@H]43)c2cc1C | -15
CC(C)(C)c1noc(CCCC(=O)NCC2CCS(=O)(=O)C2)n1 (centres undefined) | 0.495
CC(C)C1=NOC(c2nc(Cc3ccccc3)no2)C1 (centres undefined) | -1.11
CC(C)CN1CCCn2nc(CNC(=O)c3cccnc3O)cc2C1 | 14.1
Cn1cc(C(=O)NCC2CCN(C(=O)NCC(F)(F)F)CC2)cn1 | 2.26
N#Cc1ccccc1CN1CCCC(c2nccn2CC2CCC2)C1 (centres undefined) | -11

SMILES | cytotoxicity at 70.5 h [%]
CCOc1ccc2c(c1)C=C(C(=O)NC(C)Cn1cccn1)CO2 (centres undefined) | -5.74
CC(C)N1CCC(CC(=O)N(C)CC(=O)c2ccc(O)cc2)CC1 | -1.48
COc1ccc(CCN(C)C(=O)c2cc(C(C)=O)c[nH]2)cc1OC | -11.9
CN(C)S(=O)(=O)c1ccc2c(c1)N(Cc1ccccn1)CCC2 | -1.38
CCOc1ncccc1C(=O)NCCN(CC)C1CC1 | 0.543
Cc1n[nH]c(C)c1CNC(=O)c1cn(CCC2CCCCN2)nn1 (centres undefined) | -1.34
CCC1CN(C(=O)c2ccccc2N2CCOCC2)CCN1C(C)C (centres undefined) | -1.59
O=C(c1ccccn1)N1Cc2nccn2CC(CN2CCOCC2)C1 (centres undefined) | -10.3
O=C(c1ccc(OCC2CC2)cc1)N1CCOCC1c1ncon1 (centres undefined) | 1.72
Cc1cc(C)nc(Nc2cccc(C3CCCN(S(C)(=O)=O)C3)n2)n1 (centres undefined) | 46.8
O=C(Cc1ccccc1)NCCNS(=O)(=O)C1CCCCC1 | -2.64
Cc1ccccc1N1CC2(CCN(S(=O)(=O)c3ccccc3)C2)CC1=O (centres undefined) | -7.42
Cc1nc(C2CCCN(C(=O)c3cc(Cl)c[nH]3)C2)no1 (centres undefined) | -15.5
CC(Cn1cccn1)NCc1nc(-c2ccccc2Cl)no1 (centres undefined) | -19.9
CC(C)c1nc(CN(C)C2CCN(CCNS(C)(=O)=O)C2)no1 (centres undefined) | 32.3
CC(C)c1nccn1C1CCCN(C(=O)c2cc(C(N)=O)cs2)C1 (centres undefined) | 2.06
CCOC(=O)CN(C)Cc1cnc(C)s1 | 7.03
Cc1noc(C)c1-c1cncc(C2CCCN2Cc2c[nH]cn2)n1 (centres undefined) | -6.81
CC(C)CC(NC(=O)c1ccc[nH]1)C(=O)N1CCC(CO)CC1 (centres undefined) | -11.2
CNc1cc(-c2cc(OC)c(OC)c(OC)c2)ncn1 | -6.66
COC(=O)Cn1c(=O)nc2n1C(=O)N(c1ccccc1)C2 | -8.59
CCS(=O)(=O)N1CCC2(CC(=O)N(c3ccc4c(c3)OCO4)C2)C1 (centres undefined) | 7.63
